Laboratory results as given in ChEMBL document CHEMBL4433223, “Treatment of Prostate Cancers and Kennedy's Disease by PROTAC-Androgen Receptor Degradation” (ACS Med Chem Lett, 2019).

Assays:
[1] = target: T1, von Hippel-Lindau disease tumor suppressor/Androgen receptor (Homo sapiens, UniProt P10275+P40337); assay: Protac activity against VHL/AR in human LNCAP cells assessed as induction of AR degradation incubated for 24 hrs by ELISA relative to untreated control; format: cell-based
Target sequence in this assay (P10275 whole entry, looked up): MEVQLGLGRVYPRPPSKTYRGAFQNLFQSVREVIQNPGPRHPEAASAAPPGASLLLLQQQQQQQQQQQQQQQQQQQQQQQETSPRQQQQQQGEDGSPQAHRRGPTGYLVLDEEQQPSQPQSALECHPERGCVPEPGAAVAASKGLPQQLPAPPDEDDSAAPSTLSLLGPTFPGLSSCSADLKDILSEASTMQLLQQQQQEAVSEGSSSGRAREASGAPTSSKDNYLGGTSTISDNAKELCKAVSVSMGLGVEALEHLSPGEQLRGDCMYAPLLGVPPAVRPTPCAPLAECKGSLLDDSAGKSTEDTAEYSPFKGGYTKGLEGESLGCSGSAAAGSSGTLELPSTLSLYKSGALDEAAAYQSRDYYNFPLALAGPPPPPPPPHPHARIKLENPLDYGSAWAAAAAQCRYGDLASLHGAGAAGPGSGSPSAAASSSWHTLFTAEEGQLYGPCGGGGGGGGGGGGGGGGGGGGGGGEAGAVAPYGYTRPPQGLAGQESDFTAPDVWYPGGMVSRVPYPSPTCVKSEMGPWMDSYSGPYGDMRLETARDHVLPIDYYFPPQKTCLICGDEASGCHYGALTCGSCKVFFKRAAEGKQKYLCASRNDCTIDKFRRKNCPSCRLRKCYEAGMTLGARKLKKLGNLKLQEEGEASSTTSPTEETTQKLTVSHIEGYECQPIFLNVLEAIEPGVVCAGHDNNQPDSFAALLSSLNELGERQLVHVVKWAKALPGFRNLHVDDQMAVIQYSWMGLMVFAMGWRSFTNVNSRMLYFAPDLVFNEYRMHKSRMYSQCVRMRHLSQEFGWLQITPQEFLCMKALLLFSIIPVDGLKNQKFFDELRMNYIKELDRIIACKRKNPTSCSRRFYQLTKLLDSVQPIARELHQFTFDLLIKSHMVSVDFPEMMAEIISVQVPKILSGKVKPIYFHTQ
Target sequence in this assay (P40337 whole entry, looked up): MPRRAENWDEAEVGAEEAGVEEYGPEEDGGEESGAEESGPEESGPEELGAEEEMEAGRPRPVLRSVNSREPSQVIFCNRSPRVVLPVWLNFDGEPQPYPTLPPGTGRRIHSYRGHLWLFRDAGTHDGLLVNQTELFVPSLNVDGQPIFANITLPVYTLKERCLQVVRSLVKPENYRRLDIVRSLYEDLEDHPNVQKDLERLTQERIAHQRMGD

[2] = target: T1, von Hippel-Lindau disease tumor suppressor/Androgen receptor; assay: Protac activity against VHL/AR in human LNCAP cells assessed as induction of AR degradation incubated for 24 hrs by ELISA; format: cell-based
Target sequence in this assay (P10275 whole entry): as the sequence (P10275 whole entry, looked up) above
Target sequence in this assay (P40337 whole entry): as the sequence (P40337 whole entry, looked up) above

[3] = target: T1, von Hippel-Lindau disease tumor suppressor/Androgen receptor; assay: Protac activity against VHL/AR in human VCAP cells assessed as induction of AR degradation incubated for 24 hrs by ELISA relative to untreated control; format: cell-based
Target sequence in this assay (P10275 whole entry, looked up): as the sequence (P10275 whole entry, looked up) above
Target sequence in this assay (P40337 whole entry, looked up): as the sequence (P40337 whole entry, looked up) above

[4] = target: T1, von Hippel-Lindau disease tumor suppressor/Androgen receptor; assay: Protac activity against VHL/AR in human VCAP cells assessed as induction of AR degradation incubated for 24 hrs by ELISA; format: cell-based
Target sequence in this assay (P10275 whole entry): as the sequence (P10275 whole entry, looked up) above
Target sequence in this assay (P40337 whole entry): as the sequence (P40337 whole entry, looked up) above

[5] = Cmax in CD1 mouse at 10 mg/kg, sc by LC/MS/MS analysis; format: ADME, organism-based; parameters: dose 10 mg/kg, route subcutaneous; conditions: in vivo
[6] = AUC (0 to 24 hrs) in CD1 mouse at 10 mg/kg, sc by LC/MS/MS analysis; format: ADME, organism-based; parameters: dose 10 mg/kg, time < 24 hr, route subcutaneous; conditions: in vivo

Row | Compound | Emax [1] [%] | DC50 [2] [µM] | Emax [3] [%] | DC50 [4] [µM] | Cmax [5] [µg/mL] | AUC(0-t) at 24 h [6] [µg·h/mL]
1 | Cc1ncsc1-c1ccc(CNC(=O)[C@@H]2C[C@@H](O)CN2C(=O)[C@@H](NC(=O)COCCCOCCCCCOc2ccc(N3C(=O)N(c4ccc(C#N)c(C(F)(F)F)c4)C(=O)C3(C)C)cc2)C(C)(C)C)cc1 | > 71 | ≤ 0.05 | 51 to 70 | ≤ 0.05 | 1.15 | 15.6 to 40.2
2 | Cc1ncsc1-c1ccc(CNC(=O)[C@@H]2C[C@@H](O)CN2C(=O)[C@@H](NC(=O)COCCc2ccc(-c3ccc(C(=O)N[C@H]4C(C)(C)[C@H](Oc5ccc(C#N)c(Cl)c5)C4(C)C)cc3)cc2)C(C)(C)C)cc1 | > 71 | ≤ 0.05 | – | – | 1.53 | 15.6 to 40.2
3 | Cc1ncsc1-c1ccc(CNC(=O)[C@@H]2C[C@@H](O)CN2C(=O)[C@@H](NC(=O)COCCCOCCN2CCC(c3ccc(N4C(=S)N(c5ccc(C#N)c(C(F)(F)F)c5)C(=O)C4(C)C)cc3)CC2)C(C)(C)C)cc1 | 51 to 70 | ≤ 0.501 | 26 to 50 | – | – | 15.6 to 40.2
4 | Cc1ncoc1-c1ccc(CNC(=O)[C@@H]2C[C@@H](O)CN2C(=O)[C@@H](NC(=O)COCc2ccc(OC(=O)N[C@H]3C(C)(C)[C@H](Oc4ccc(C#N)c(Cl)c4)C3(C)C)cc2)C(C)(C)C)cc1 | > 71 | ≤ 0.05 | – | – | – | 15.6 to 40.2
5 | CC(C)(C)[C@H](NC(=O)COCCCCCOc1ccc(C(=O)N[C@H]2C(C)(C)[C@H](Oc3ccc(C#N)c(Cl)c3)C2(C)C)cc1)C(=O)N1C[C@H](O)C[C@H]1C(=O)NCc1ccc(-c2cncs2)cc1 | > 71 | ≤ 0.05 | – | – | – | 15.6 to 40.2
6 | Cc1ncsc1-c1ccc([C@H](C)NC(=O)[C@@H]2C[C@@H](O)CN2C(=O)[C@@H](NC(=O)COCCCCCOc2ccc(C(=O)N[C@H]3C(C)(C)[C@H](Oc4ccc(C#N)c(Cl)c4)C3(C)C)cc2)C(C)(C)C)cc1 | > 71 | ≤ 0.05 | – | – | 1.9 | 15.6 to 40.2
